Laboratory results reported in paper PMC7748285, “A small molecule that mitigates bacterial infection disrupts Gram-negative cell membranes and is inhibited by cholesterol and neutral lipids” (PLoS Pathogens, 2020).

Target: T1, AcrB (Escherichia coli, UniProt P31224)
T1 construct: 4·His tag at the C-terminus
Assay: isothermal titration calorimetry (ITC) with purified AcrB, […]°C
Assay type: binding

T1 sequence (P31224 whole entry): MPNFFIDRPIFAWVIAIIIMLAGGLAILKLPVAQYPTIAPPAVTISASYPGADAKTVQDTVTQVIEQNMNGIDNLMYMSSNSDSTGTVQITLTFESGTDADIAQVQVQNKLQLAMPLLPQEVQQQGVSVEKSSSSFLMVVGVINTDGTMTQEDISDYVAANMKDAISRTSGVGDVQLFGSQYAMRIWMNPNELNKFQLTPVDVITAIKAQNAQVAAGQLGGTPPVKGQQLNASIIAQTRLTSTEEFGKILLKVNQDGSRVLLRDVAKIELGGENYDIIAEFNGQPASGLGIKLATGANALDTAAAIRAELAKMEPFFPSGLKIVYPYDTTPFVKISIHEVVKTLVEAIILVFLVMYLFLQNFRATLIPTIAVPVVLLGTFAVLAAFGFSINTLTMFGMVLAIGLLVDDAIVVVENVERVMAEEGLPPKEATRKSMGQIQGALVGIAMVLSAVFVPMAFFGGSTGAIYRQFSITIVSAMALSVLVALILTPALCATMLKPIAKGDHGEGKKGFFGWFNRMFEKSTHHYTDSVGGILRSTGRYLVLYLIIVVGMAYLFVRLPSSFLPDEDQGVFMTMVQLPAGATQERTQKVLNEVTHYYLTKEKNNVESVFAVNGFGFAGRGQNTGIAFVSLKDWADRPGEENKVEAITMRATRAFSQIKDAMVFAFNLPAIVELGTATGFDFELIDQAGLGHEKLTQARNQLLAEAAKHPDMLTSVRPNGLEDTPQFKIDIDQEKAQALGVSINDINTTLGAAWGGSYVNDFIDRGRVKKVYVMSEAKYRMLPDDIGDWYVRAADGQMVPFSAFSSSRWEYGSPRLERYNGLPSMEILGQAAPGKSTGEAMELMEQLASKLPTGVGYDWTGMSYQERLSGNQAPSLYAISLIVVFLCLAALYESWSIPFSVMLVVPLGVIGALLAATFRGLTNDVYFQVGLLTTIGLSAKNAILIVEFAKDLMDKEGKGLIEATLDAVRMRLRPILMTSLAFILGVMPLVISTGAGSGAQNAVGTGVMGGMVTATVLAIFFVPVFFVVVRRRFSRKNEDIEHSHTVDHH

OC(COc1ccc(C23CC4CC(CC(C4)C2)C3)cc1)CN1CCCCC1 (stereo not shown) [JD1] was tested, and the Kd was 520 nM.
